In publication PMC6736568, “Discovery of Novel Anti-cryptosporidial Activities From Natural Products by in vitro High-Throughput Phenotypic Screening” (Frontiers in Microbiology, 2019):
Read-outs that look alike come from different tables or passages of the source.

Tests used:
[1] = system: Cryptosporidium parvum; assay: qRT-PCR assay of the growth of C. parvum in vitro in HCT-8 host cells (primary and secondary screening, EC50); assay type: cell-based; conditions: Cryptosporidium parvum, HCT-8; for inhibition at 10 µM: primary screening at 10 uM, read-out: Inhibition (%); for inhibition at 3.3 µM: secondary screening at 3.3 uM, read-out: % Inhibition (3.3 uM)
[2] = system: HCT-8 host cells (Hs18S)
[3] = in vitro
[4] = primary screening at 10 uM, treated vs control

CCCCCCCCCc1ccc(O)cc1 [4-NONYLPHENOL]
inhibition at 10 µM [1]: 83.1% | inhibition at 3.3 µM [1]: -181% | Hs18S ΔCT [2, 4]: 0.14 | cytotoxicity at 10 µM [3]: 9.2%

C=C[C@@](C)(O)CCC=C(C)C [LINALOOL (+)]
inhibition at 10 µM [1]: -23.3% | Hs18S ΔCT [2, 4]: 0.09 | cytotoxicity at 10 µM [3]: 6.1%

C[C@@H]1O[C@@H](O[C@H]2[C@H](Oc3cc(O)c4c(c3)O[C@H](c3ccc(O)cc3)CC4=O)O[C@H](CO)[C@@H](O)[C@@H]2O)[C@H](O)[C@H](O)[C@H]1O [NARINGIN]
inhibition at 10 µM [1]: 2.06% | Hs18S ΔCT ([2]; human, 41 h, 10 μM): 0.16 | cytotoxicity at 41 h, 10 µM ([3]; human): 10.4%

Nc1ccccc1C(=O)CC(N)C(=O)O (stereo not shown) [KYNURENINE]
inhibition at 10 µM [1]: -14.4% | Hs18S ΔCT [2, 4]: 0.48 | cytotoxicity at 10 µM [3]: 28.1%

CC(=O)N[C@@H](CC(=O)N[C@@H](CCC(=O)O)C(=O)O)C(=O)O [SPAGLUMIC ACID]
inhibition at 10 µM [1]: 31.3% | Hs18S ΔCT [2, 4]: 0.18 | cytotoxicity at 10 µM [3]: 11.9%

O=c1cc(-c2ccccc2)oc2c(O)c(O)ccc12 [7,8-DIHYDROXYFLAVONE]
inhibition at 10 µM [1]: 49.3% | Hs18S ΔCT [2, 4]: 0.49 | cytotoxicity at 10 µM [3]: 28.8%

CC(=O)O[C@H]1C(=O)[C@@]2(C)[C@H]([C@H](OC(=O)c3ccccc3)[C@]3(O)C[C@H](OC(=O)[C@H](O)[C@@H](NC(=O)c4ccccc4)c4ccccc4)C(C)=C1C3(C)C)[C@]1(OC(C)=O)CO[C@@H]1C[C@@H]2O [PACLITAXEL]
inhibition at 10 µM [1]: 86.6% | inhibition at 3.3 µM [1]: 93% | Hs18S ΔCT ([2]; human, 41 h, 10 μM): 0.65 | cytotoxicity at 41 h, 10 µM ([3]; human): 36.1%

NCCc1c[nH]c2ccccc12 [TRYPTAMINE]
inhibition at 10 µM [1]: 95.5% | inhibition at 3.3 µM [1]: 12% | Hs18S ΔCT [2, 4]: -0.43 | cytotoxicity at 10 µM [3]: -34.7%

CC[C@H]1[C@@H]2C[C@H]3[C@@H]4N(C)c5ccccc5[C@]45C[C@@H]([C@H]2[C@H]5O)N3[C@@H]1O [AJMALINE]
inhibition at 10 µM [1]: -1.24% | Hs18S ΔCT [2, 4]: 0.10 | cytotoxicity at 10 µM [3]: 6.9%

COc1cc([C@@H]2c3cc4c(cc3[C@H](O)[C@H]3COC(=O)[C@@H]23)OCO4)cc(OC)c1OC [PICROPODOPHYLLIN]
inhibition at 10 µM [1]: 79.4% | inhibition at 3.3 µM [1]: 56% | Hs18S ΔCT [2, 4]: 0.94 | cytotoxicity at 41 h, 10 µM [3]: 47.8%

COc1ccc(-c2coc3cc(O)ccc3c2=O)c(O)c1O [KOPARIN]
inhibition at 10 µM [1]: 6.05% | Hs18S ΔCT ([2]; human, 41 h, 10 μM): -0.02 | cytotoxicity at 41 h, 10 µM ([3]; human): -1.6%

Cc1cc(O)c2c(O)c3c(O)cccc3cc2c1 [CHRYSAROBIN]
inhibition at 10 µM [1]: -8.96% | Hs18S ΔCT ([2]; human, 41 h, 10 μM): 0.48 | cytotoxicity at 41 h, 10 µM ([3]; human): 28.2%

N#C[C@H](O[C@@H]1O[C@H](CO[C@@H]2O[C@H](CO)[C@@H](O)[C@H](O)[C@H]2O)[C@@H](O)[C@H](O)[C@H]1O)c1ccccc1 [AMYGDALIN]
inhibition at 10 µM [1]: -15.6% | Hs18S ΔCT [2, 4]: 0.07 | cytotoxicity at 10 µM [3]: 4.8%

O=C(/C=C/C=C/c1ccc2c(c1)OCO2)N1CCCCC1 [PIPERINE]
inhibition at 10 µM [1]: -12.1% | Hs18S ΔCT [2, 4]: 0.03 | cytotoxicity at 10 µM [3]: 2.1%

CNc1ccccc1C(=O)O
inhibition at 10 µM [1]: -14.8% | Hs18S ΔCT [2]: 0.20 | cytotoxicity at 10 µM [3]: 13%

CC(=O)O[C@H]1C(=O)[C@@]2(C)[C@H]([C@H](OC(=O)c3ccccc3)[C@]3(O)C[C@H](O)C(C)=C1C3(C)C)[C@]1(OC(C)=O)CO[C@@H]1C[C@@H]2O [BACCATIN III]
inhibition at 10 µM [1]: 1.76% | Hs18S ΔCT [2, 4]: 0.08 | cytotoxicity at 10 µM [3]: 5.2%

CC(C)=CC1C(CO)C1(C)C (stereo not shown) [CHRYSANTHEMYL ALCOHOL]
inhibition at 10 µM [1]: -16.9% | Hs18S ΔCT ([2]; human, 41 h, 10 μM): -0.13 | cytotoxicity at 41 h, 10 µM ([3]; human): -9.5%

O=c1c2cc(O)c(O)cc2oc2cc(O)c([C@@H]3O[C@H](CO)[C@@H](O)[C@H](O)[C@H]3O)c(O)c12 [MANGIFERIN]
inhibition at 10 µM [1]: -3.49% | Hs18S ΔCT ([2]; human, 41 h, 10 μM): 0.18 | cytotoxicity at 41 h, 10 µM ([3]; human): 11.5%

CC(C)=CCOc1cc2oc(=O)ccc2cc1O [PRENYLETIN]
inhibition at 10 µM [1]: -6.72% | Hs18S ΔCT ([2]; human, 41 h, 10 μM): -0.59 | cytotoxicity at 41 h, 10 µM ([3]; human): -50%

Cc1cc2nc3c(=O)[nH]c(=O)nc-3n(C[C@H](O)[C@H](O)[C@H](O)CO)c2cc1C [RIBOFLAVIN]
inhibition at 10 µM [1]: -26.6% | Hs18S ΔCT ([2]; human, 41 h, 10 μM): 0.02 | cytotoxicity at 41 h, 10 µM ([3]; human): 1.1%
